Data published in patent US7763605B2, “[1,4]benzodiazepines as vasopressin V2 receptor antagonists” (Janssen Pharmaceutica, N.V., priority 2004, dated 2010).
Where a name gives a salt, the structure may show the parent alone.

Tests used:
[1] = target: T1, human V-1 receptor (V1a) (Homo sapiens, UniProt P37288); experiment: In vitro recombinant vasopressin receptor binding assay (3H-arginine vasopressin displacement), V1a; conditions: 0.2 μM test compound, cloned human receptor membranes from HEK-293 cells; for inhibition at 0.2 µM: read-out: Binding V1a (% inhib @ 0.2 μM)
T1 construct: expressed in transfected cells; host or cells: HEK-293 (membranes)
Experimental: (§1) Compounds were assessed for their ability to displace ^3H-arginine vasopressin from the human V-1 or V-2 receptor in HEK-293 cells. Assay buffer is 50 mM Tris-Cl, 5 mM MgCl2, 0.1% BSA (pH 7.5) containing 5 ug/ml of aprotinin, leupeptin, pepstatin, 50 ug/ml bacitracin, and 1 mM Pefabloc. ^3H-vasopressin is ^3H-arginine-8-vasopressin (68.5 Ci/mmol, final concentration in assay is 0.65-0.75 nM). Into wells of 96-well round bottom polypropylene plates were added buffer, test compound, membrane (containing cloned human V-1 or V-2 receptor), and ^3H-vasopressin. The reaction plates were allowed to sit at room temperature for one hour. The samples were filtered through Unifilter GF/C plates (presoaked in 0.3 polyethyleneimine). The plates were washed 5 times with cold physiological saline containing 0.05% Tween 20. After drying, the bottom of the filter plates were sealed and 0.025 ml of Microscint-20 was added to each filter. The top of the plate was sealed, and the plate was counted. Non-specific binding was determined by the addition of 1.25 uM arginine-8-vasopressin in those wells.

[2] = target: T2, human V2 receptor (Homo sapiens, UniProt P30518); experiment: In vitro recombinant vasopressin receptor binding assay (3H-arginine vasopressin displacement), V2; conditions: for IC50: cloned human receptor membranes from HEK-293 cells
T2 construct: expressed in transfected cells; host or cells: HEK-293
Experimental: as §1

[3] = target: T2, human V2 receptor; experiment: Inhibition of AVP-induced cAMP accumulation in transfected HEK-293 cells expressing human V2 receptor; assay type: cell-based; conditions: AVP 1 nM, HEK-293 expressing human V2, read-out: Functional V2 (IC50; μM)
Experimental: HEK-293 cells were grown in DMEM media supplemented with 10% FBS and glutamine (Gibco BRL, Grand Island, N.Y.). Once transfected, the cells were passed biweekly by trypsinization and seeded into 96 well plates at 33,000 cells per well. HEK-293 were transfected with human V1a, V1b or V2 DNA using DMRIE-C reagent from Life Technologies, Inc., Grand Island, N.Y. Cells were tested for their responsiveness to vasopressin 48 h after transfection. Stable lines were generated by selecting cells grown in culture media containing geneticin (500 μg/mL, Life Technologies).
The accumulation of cAMP was measured in transfected HEK-293 expressing the human V2 receptor. The cells were cultured 4-7 d in 96-well plates. On the day of testing in this assay, cells were washed twice in assay media (DMEM/F12 containing 0.1% BSA). The cells were treated with the test compound for 5 min and then given AVP (1 nM) in assay media containing 1 mM isobutylmethylxanthine. After 5 min, 0.5 N HCl was added to disrupt the cells and solubilize cAMP. The cAMP content of 20 μL of the cell lysate in each well was measured using cAMP Flashplates (NEN Life Sciences). Data are expressed as pmol cAMP/well. While the assay is optimized to detect and quantitate antagonistic activity, agonistic activity would also be apparent at the higher concentrations of test compounds.
The data from the cAMP accumulation and the calcium mobilization assays are expressed as IC50 values as determined from dose response curves.

T2 sequence (P30518 whole entry): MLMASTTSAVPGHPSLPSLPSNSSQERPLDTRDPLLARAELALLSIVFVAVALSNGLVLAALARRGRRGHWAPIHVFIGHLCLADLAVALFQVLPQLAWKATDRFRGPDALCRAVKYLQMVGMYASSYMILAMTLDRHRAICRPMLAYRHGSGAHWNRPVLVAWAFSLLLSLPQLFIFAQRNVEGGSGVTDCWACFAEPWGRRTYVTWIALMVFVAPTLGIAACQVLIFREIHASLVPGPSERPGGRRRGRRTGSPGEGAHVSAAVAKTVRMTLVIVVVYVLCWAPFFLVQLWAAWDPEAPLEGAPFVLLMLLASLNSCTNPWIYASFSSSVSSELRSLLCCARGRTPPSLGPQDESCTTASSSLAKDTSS
T1 sequence (P37288 whole entry): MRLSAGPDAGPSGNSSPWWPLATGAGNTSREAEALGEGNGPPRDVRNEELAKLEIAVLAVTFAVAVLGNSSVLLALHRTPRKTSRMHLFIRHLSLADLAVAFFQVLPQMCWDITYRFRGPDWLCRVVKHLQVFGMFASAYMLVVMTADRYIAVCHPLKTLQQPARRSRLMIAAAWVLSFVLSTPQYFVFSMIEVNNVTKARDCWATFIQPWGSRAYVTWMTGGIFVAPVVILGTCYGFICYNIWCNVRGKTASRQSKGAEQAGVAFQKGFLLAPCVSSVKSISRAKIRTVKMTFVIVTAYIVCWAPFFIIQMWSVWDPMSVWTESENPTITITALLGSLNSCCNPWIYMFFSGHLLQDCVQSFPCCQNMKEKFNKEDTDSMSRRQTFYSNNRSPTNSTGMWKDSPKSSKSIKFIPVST

Compound	inhibition at 0.2 µM [1]	IC50 [2]	IC50 [3]	inhibition at 0.2 µM ([2]; read-out: Binding V2 (% inhib @ 0.2 μM))	Binding V1a (% inhib @ 0.2 μM) [1]
O=C(Nc1ccc(C(=O)N2C[C@@H](CO)N(Cc3ccccc3)Cc3ccccc32)c(Cl)c1)c1ccccc1-c1ccccc1 [Cpd 1, (S)-Biphenyl-2-carboxylic acid [4-(4-benzyl-3-hydroxymethyl-2,3,4,5-tetrahydro-benzo[e][1,4]diazepine-1-carbonyl)-3-chloro-phenyl]-amide]	1%	0.5 µM			
CSC[C@@H]1CN(C(=O)c2ccc(NC(=O)c3ccccc3-c3ccccc3)cc2Cl)c2ccccc2CN1C [Cpd 2, (S)-Biphenyl-2-carboxylic acid [3-chloro-4-(4-methyl-3-methylsulfanylmethyl-2,3,4,5-tetrahydrobenzo[e][1,4]diazepine-1-carbonyl)-phenyl]-amide]	0%	0.24 µM	0.28 µM		
CN1Cc2ccccc2N(C(=O)c2ccc(NC(=O)c3ccccc3-c3ccccc3)cc2Cl)C[C@@H]1CN1CCCC1 [Cpd 3, (S)-Biphenyl-2-carboxylic acid [3-chloro-4-(4-methyl-3-pyrrolidin-1-ylmethyl-2,3,4,5-tetrahydrobenzo[e][1,4]diazepine-1-carbonyl)-phenyl]-amide ditrifluoroacetate]	0%	0.34 µM	0.71 µM		
CN1Cc2ccccc2N(C(=O)c2ccc(NC(=O)c3ccccc3-c3ccccc3)cc2Cl)C[C@H]1COC1CCCC1 [Cpd 4, (S)-Biphenyl-2-carboxylic acid [3-chloro-4-(3-cyclopentyloxymethyl-4-methyl-2,3,4,5-tetrahydrobenzo[e][1,4]diazepine-1-carbonyl)-phenyl]-amide trifluoroacetate]	0%		> 10 µM	22%	
COC[C@@H]1CN(C(=O)c2ccc(NC(=O)c3ccccc3-c3ccccc3)cc2Cl)c2ccccc2CN1C [Cpd 6, (S)-Biphenyl-2-carboxylic acid [3-chloro-4-(3-methoxymethyl-4-methyl-2,3,4,5-tetrahydrobenzo[e][1,4]diazepine-1-carbonyl)-phenyl]-amide trifluoroacetate]	0%	0.066 µM	0.025 µM		
CS(=O)(=O)N1Cc2ccccc2N(C(=O)c2ccc(NC(=O)c3ccccc3-c3ccccc3)cc2Cl)C[C@H]1CO [Cpd 7, (S)-Biphenyl-2-carboxylic acid [3-chloro-4-(3-hydroxymethyl-4-methanesulfonyl-2,3,4,5-tetrahydrobenzo[e][1,4]diazepine-1-carbonyl)-phenyl]-amide]	4%	0.05 µM	0.02 µM		
CS(=O)(=O)OC[C@@H]1CN(C(=O)c2ccc(NC(=O)c3ccccc3-c3ccccc3)cc2Cl)c2ccccc2CN1S(C)(=O)=O [Cpd 8, (S)-methanesulfonic acid 1 {4-[(biphenyl-2-carbonyl)-amino]-2chloro-benzoyl}-4-methanesulfonyl-2,3,4,5-tetrahydro-1H-benzo[e][1,4]diazepin-3-ylmethyl ester]	0%	0.4 µM	1.08 µM		
CC(=O)OC[C@@H]1CN(C(=O)c2ccc(NC(=O)c3ccccc3-c3ccccc3)cc2Cl)c2ccccc2CN1C(C)=O [Cpd 9, (S)-Acetic acid 4-acetyl-1-{4-[(biphenyl-2-carbonyl)-amino]-2-chloro-benzoyl}-2,3,4,5-tetrahydro-1H-benzo[e][1,4]diazepin-3-ylmethyl ester]	2%	0.045 µM	0.04 µM		
CCCS(=O)(=O)N1Cc2ccccc2N(C(=O)c2ccc(NC(=O)c3ccccc3-c3ccccc3)cc2Cl)C[C@H]1CO [Cpd 10, (S)-Biphenyl-2-carboxylic acid {3-chloro-4-[3-hydroxymethyl-4-(propane-1-sulfonyl)-2,3,4,5-tetrahydrobenzo[e][1,4]diazepine-1-carbonyl]-phenyl}-amide]	2%	0.065 µM	0.03 µM		
O=C(Nc1ccc(C(=O)N2C[C@@H](CO)N(S(=O)(=O)c3ccccc3)Cc3ccccc32)c(Cl)c1)c1ccccc1-c1ccccc1 [Cpd 11, (S)-Biphenyl-2-carboxylic acid [4-(4-benzenesulfonyl-3-hydroxymethyl-2,3,4,5-tetrahydrobenzo[e][1,4]diazepine-1-carbonyl)-3-chloro-phenyl]-amide]	0%	0.23 µM	0.773 µM		
CC(=O)N1Cc2ccccc2N(C(=O)c2ccc(NC(=O)c3ccccc3-c3ccccc3)cc2Cl)C[C@H]1CO [Cpd 12, (S)-Biphenyl-2-carboxylic acid [4-(4-acetyl-3-hydroxymethyl-2,3,4,5-tetrahydro-benzo[e][1,4]diazepine-1-carbonyl)-3-chloro-phenyl]-amide]	6%	0.028 µM	0.02 µM		
(S)-Biphenyl-2-carboxylic acid [3-chloro-4-(4-methyl-3-morpholino-4-ylmethyl-2,3,4,5-tetrahydrobenzo[e][1,4]diazepine-1-carbonyl)-phenyl]-amide ditrifluoroacetate [Cpd 5]					0%
